Among the data in ChEMBL document CHEMBL3860035, “Isolation and Structure Elucidation of Cytotoxic Saccharothriolides D to F from a Rare Actinomycete Saccharothrix sp. and Their Structure-Activity Relationship” (J Nat Prod, 2016) are IC50 values, retold here.

Test [1] can be described thus: Cytotoxicity against human HT1080 cells assessed as reduction cell viability after 72 hrs by WST8-based colorimetric analysis. To be noted: HT-1080, 72 h. It counts as functional. (Formazan colour is commonly taken as a measure of viable cells.)
The nature of test [2]: Cytotoxicity against human HT1080 cells. To be noted: HT-1080. The test is classed as functional, cell-based.

Where a name gives a salt, the structure may show the parent alone.

For the compound `C[C@@H]1[C@@H](Nc2ccccc2C(=O)O)[C@@H](C)C(=O)[C@@H](C)[C@@H](O)CC(=O)O[C@@H]1c1cc(O)cc(O)c1`, in test [1], the half-inhibitory concentration (IC50) was determined as 66.4 µM.

With `COc1cccc2c1C(=O)c1c(O)c3c(c(O)c1C2=O)C[C@@](O)(C(=O)CO)C[C@@H]3O[C@H]1C[C@H](N)[C@H](O)[C@H](C)O1` [DOXORUBICIN HYDROCHLORIDE], the 50% inhibitory concentration (IC50) in test [1] was determined as 0.38 µM.

For the compound `C[C@@H]1[C@@H](Nc2ccccc2O)[C@@H](C)C(=O)[C@@H](C)[C@@H](O)[C@H](C)C(=O)O[C@@H]1c1cc(O)cc(O)c1`, the half-inhibitory concentration (IC50) in test [1] was 29.2 µM.

The compound `C[C@@H]1[C@@H](Nc2ccccc2O)[C@@H](C)C(=O)[C@@H](C)[C@@H](O)[C@@H](C)C(=O)O[C@@H]1c1cc(O)cc(O)c1` yielded an IC50 in test [2] of 13.9 µM.

Broadly, the IC50 is the concentration at which inhibition is half-maximal.
